The target in series [1] is T1, recombinant BACE1 protein (Homo sapiens, UniProt P56817).
T1 construct: recombinant BACE1 protein in a final concentration of 1 μg/ml
The experiment in a line: BACE1 biochemical FRET based assay - Method 1. Conditions: BACE1, 120 minutes at room temperature, pH 5.0; read-out: Biochemical FRET based assay - Method 1 pIC50 (converted). The source says: (§1) This assay is a Fluorescence Resonance Energy Transfer Assay (FRET) based assay. The substrate for this assay is an APP derived 13 amino acids peptide that contains the ‘Swedish’ Lys-Met/Asn-Leu mutation of the amyloid precursor protein (APP) beta-secretase cleavage site. This substrate also contains two fluorophores: (7-methoxycoumarin-4-yl) acetic acid (Mca) is a fluorescent donor with excitation wavelength at 320 nm and emission at 405 nm and 2,4-Dinitrophenyl (Dnp) is a proprietary quencher acceptor. […] Upon cleavage by BACE1, the fluorophore Mca is separated from the quenching group Dnp, restoring the full fluorescence yield of the donor. The increase in fluorescence is linearly related to the rate of proteolysis.
Briefly in a 384-well format recombinant BACE1 protein in a final concentration of 1 μg/ml is incubated for 120 minutes at room temperature with 10 μm substrate in incubation buffer (40 mM Citrate buffer pH 5.0, 0.04% PEG, 4% DMSO) in the absence or presence of compound. Next the amount of proteolysis is directly measured by fluorescence measurement at T=0 and T=120 (excitation at 320 nm and emission at 405 nm). Results are expressed in RFU (Relative Fluorescence Units), as difference between T120 and T0.
(§2) A best-fit curve is fitted by a minimum sum of squares method to the plot of % Controlmin versus compound concentration. From this an IC50 value (inhibitory concentration causing 50% inhibition of activity) can be obtained.

In series [2] the test system is Abeta 1-42 produced and secreted into the medium of human neuroblastoma SKNBE2 cells. Nature of the series: Cellular αLisa assay in SKNBE2 cells, Abeta 42. The note with it: Homo sapiens, SKNBE2, 18 h, SKNBE2 cells expressing hAPP695, incubated for 18 hours; read-out: Cellular αLisa assay in SKNBE2 cells Abeta 42 pIC50 (converted). Type of series: cell-based. How it is done: In two αLisa assays the levels of Abeta 1-42 produced and secreted into the medium of human neuroblastoma SKNBE2 cells are quantified. The assay is based on the human neuroblastoma SKNBE2 expressing the wild type Amyloid Precursor Protein (hAPP695). The compounds are diluted and added to these cells, incubated for 18 hours and then measurements of Abeta 1-42 are taken. Abeta 1-42 are measured by sandwich αLisa. αLisa is a sandwich assay using biotinylated antibody AbN/25 attached to streptavidin coated beads and antibody cAb42/26 conjugated acceptor beads for the detection of Abeta 1-42 respectively. In the presence of Abeta 1-42, the beads come into close proximity. The excitation of the donor beads provokes the release of singlet oxygen molecules that trigger a cascade of energy transfer in the acceptor beads, resulting in light emission. Light emission is measured after 1 hour incubation (excitation at […] and emission at 615 nm).
as §2

The test system of series [3] is Abetatotal in human neuroblastoma SKNBE2 cells. Nature of the series: Cellular αLisa assay in SKNBE2 cells, Abetatotal. Conditions: Homo sapiens, SKNBE2, 18 h, SKNBE2 cells expressing hAPP695, incubated for 18 hours; read-out: Cellular αLisa assay in SKNBE2 cells Abetatotal pIC50 (converted). The class given is cell-based.
Series [4] deals with T2, recombinant BACE2 protein (Homo sapiens, UniProt Q9Y5Z0).
T2 construct: recombinant BACE2 protein in a final concentration of 0.4 μg/ml
T2 sequence (Q9Y5Z0 63-518): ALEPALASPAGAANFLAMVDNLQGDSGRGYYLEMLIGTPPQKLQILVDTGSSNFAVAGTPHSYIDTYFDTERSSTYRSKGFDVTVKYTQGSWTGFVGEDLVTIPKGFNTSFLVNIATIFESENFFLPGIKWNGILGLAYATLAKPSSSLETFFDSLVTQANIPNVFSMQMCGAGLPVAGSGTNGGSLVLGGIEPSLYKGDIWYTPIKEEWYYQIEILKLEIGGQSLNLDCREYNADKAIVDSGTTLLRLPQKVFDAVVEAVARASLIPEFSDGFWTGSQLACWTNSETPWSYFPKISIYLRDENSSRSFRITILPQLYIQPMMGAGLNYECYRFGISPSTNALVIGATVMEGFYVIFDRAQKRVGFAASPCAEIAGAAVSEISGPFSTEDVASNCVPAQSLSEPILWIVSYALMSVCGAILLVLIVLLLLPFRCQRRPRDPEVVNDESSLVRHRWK
The experiment in a line: BACE2 biochemical FRET based assay. The note with it: BACE2, 450 minutes at room temperature, pH 5.0; read-out: Biochemical FRET based assay pIC50 (converted).
Excerpt: as §1, with “assay” for “assay is an APP derived 13 amino acids peptide that”, “the beta-secretase,” for “BACE1,”
Briefly in a 384-well format recombinant BACE2 protein in a final concentration of 0.4 μg/ml is incubated for 450 minutes at room temperature with 10 μM substrate in incubation buffer (50 mM Citrate buffer pH 5.0, 0.05% PEG, no DMSO) in the absence or presence of compound. Next the amount of proteolysis is directly measured by fluorescence measurement at T=0 and T=450 (excitation at 320 nm and emission at 405 nm). Results are expressed in RFU (Relative Fluorescence Units), as difference between T450 and T0.
as §2

The subject of series [5] is Abeta 1-37, Abeta 1-38, Abeta 1-40 and Abeta 1-42 in CSF. The experiment in a line: Pharmacology in the Beagle dog: beta-amyloid profile in cerebrospinal fluid (CSF) after a single dose. The class given is in vivo. Here is the method: Test compounds were tested to evaluate the effect on the beta-amyloid profile in cerebrospinal fluid (CSF) of dogs after a single dose, in combination with pharmacokinetic (PK) follow up and limited safety evaluation.
For each of compound 20, 21, 22 or 41, four beagle dogs (2 males, 2 females) were dosed with vehicle (1 ml/kg of an aqueous solution of 20% cyclodextrin) and 12 beagle dogs (2 males and 2 females per dosage group) were dosed with test compounds as follows:
In the case of compounds 39, 33 and 31, two beagle dogs (1 male, 1 female) were dosed with vehicle (1 ml/kg of an aqueous solution of 20% cyclodextrin) and 4 beagle dogs (2 males and 2 females) were dosed with test compound […] (0.31 mg/kg in 0.31 mg/ml of an aqueous 20% cyclodextrin solution) on an empty stomach.
Eight hours after dosing the animals got access to their regular meal for 30 minutes. Blood was taken for PK follow up (0.5, 1, 2, 4, 8, 25 and 49 hours) and serum samples for biochemistry were taken before and at 8 and 25 h after dosing. The CSF samples were used for measurement of Abeta 1-37, Abeta 1-38, Abeta 1-40 and Abeta 1-42.

Where [6] appears, read: Canis lupus familiaris, single dose 0.31 mg/kg, 8 h post dosing, read-out: % Decrease in Abeta 1-42 at 8 h post dosing compared to own baseline.

T1 sequence (P56817 46-501): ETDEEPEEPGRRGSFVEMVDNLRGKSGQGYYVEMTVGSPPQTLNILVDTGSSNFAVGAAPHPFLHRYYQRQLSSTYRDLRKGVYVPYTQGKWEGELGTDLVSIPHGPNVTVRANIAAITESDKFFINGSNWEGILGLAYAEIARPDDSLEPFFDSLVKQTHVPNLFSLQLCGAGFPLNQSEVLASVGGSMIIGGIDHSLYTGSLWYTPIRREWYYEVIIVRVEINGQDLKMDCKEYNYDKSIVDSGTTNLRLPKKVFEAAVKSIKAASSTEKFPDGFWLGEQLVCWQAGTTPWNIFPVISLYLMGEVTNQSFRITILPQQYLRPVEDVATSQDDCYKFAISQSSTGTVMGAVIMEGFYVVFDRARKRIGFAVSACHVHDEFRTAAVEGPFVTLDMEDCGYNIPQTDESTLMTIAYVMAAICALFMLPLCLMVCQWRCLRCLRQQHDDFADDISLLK

Regarding `CCS(=O)(=O)C1(C)CCC(CF)(c2cc(NC(=O)c3ccc(F)cn3)ccc2F)N=C1N` (centres unmarked) [Compound 31], the IC50 is 1.7 nM in series [1], 1.91 nM in series [2], 1.78 nM in series [3] and 2.63 nM in series [4]. Besides, the inhibition in vivo at 0.31 mg/kg in series [5] (setting [6]) is 31%.
As to `C[C@@]1(S(C)(=O)=O)CC[C@@](CF)(c2cc(NC(=O)c3ccc(F)cn3)ccc2F)N=C1N` [Compound 20], the IC50 is 3.02 nM in series [1], 2.51 nM in series [2], 2.57 nM in series [3] and 3.02 nM in series [4]. The inhibition in vivo at 0.16 mg/kg in series [5] (Canis lupus familiaris, single dose 0.16 mg/kg, 8 h post dosing, read-out: % Decrease in Abeta 1-42 at 8 h post dosing compared to own baseline) was found to be 54%. In series [5] (Canis lupus familiaris, single dose 0.63 mg/kg, 8 h post dosing, read-out: % Decrease in Abeta 1-42 at 8 h post dosing compared to own baseline), the inhibition in vivo at 0.63 mg/kg is 75%. For the same molecule, in series [5] (Canis lupus familiaris, single dose 1.25 mg/kg, 8 h post dosing, read-out: % Decrease in Abeta 1-42 at 8 h post dosing compared to own baseline), the inhibition in vivo at 1.25 mg/kg was 77%. Besides, the “% Decrease in Abeta 1-42 at 24 h^(a) or 25 h^(b) post dosing compared to own baseline” value in series [5] (single dose 0.16 mg/kg, 24 h post dosing (a)) is recorded as 44^(a) %. In addition, the figures for the “% Decrease in Abeta 1-42 at 49 h post dosing compared to own baseline” value in series [5] (single dose 0.63 mg/kg) and in series [5] (single dose 1.25 mg/kg) were 29% and 65%, respectively.
Take `CC1(S(C)(=O)=O)CCC(CF)(c2cc(NC(=O)c3cnc(OCC(F)(F)F)cn3)ccc2F)N=C1N` (centres unmarked) [Compound 39]: the IC50 in series [1] is 1.29 nM; in series [2] it was 1.38 nM; in series [3], 2.14 nM; in series [4], 25.1 nM. Also, in series [5] (setting [6]), the inhibition in vivo at 0.31 mg/kg was found to be 53%. In series [5] (single dose 0.31 mg/kg, 25 h post dosing (b)), the “% Decrease in Abeta 1-42 at 24 h^(a) or 25 h^(b) post dosing compared to own baseline” value is 44^(b) %.
Molecule `COc1cnc(C(=O)Nc2ccc(F)c([C@]3(CF)CC[C@@](C)(S(C)(=O)=O)C(N)=N3)c2)cn1` [Compound 2] showed a melting point of 122.96 °C. In series [1], the IC50 was 2.29 nM. Moreover, in series [2], the IC50 is 1.48 nM. The IC50 in series [4] was 13.8 nM. Besides, the inhibition in vivo at 0.31 mg/kg in series [5] (setting [6]) turned out to be 56%.
The molecule `COc1cnc(C(=O)Nc2ccc(F)c([C@]3(C)CC[C@](C)(S(C)(=O)=O)C(N)=N3)c2)cn1` [Compound 9] yielded a melting point of 214.97 °C. In series [1], the IC50 was 77.6 nM. Moreover, the IC50 in series [2] is 28.8 nM. Moreover, in series [4], the IC50 is 513 nM.
As for `CC1(S(C)(=O)=O)CCC(CF)(c2cc(NC(=O)c3cnc(OC(F)F)cn3)ccc2F)N=C1N` (centres unmarked) [Compound 32], the IC50 was 1.05 nM in series [1], 0.398 nM in series [2], 0.309 nM in series [3] and 11.5 nM in series [4]. Besides, in series [5] (setting [6]), the inhibition in vivo at 0.31 mg/kg came out at 76%.

For orientation: melting point means the temperature, or range, at which the solid turns liquid.

(Values after patent publication US20180334447A1, “2,3,4,5-TETRAHYDROPYRIDIN-6-AMINE DERIVATIVES” (JANSSEN PHARMACEUTICA NV, priority 2015, published 2018).)
